Experimental data as given in patent US10080741B2, “Isoxazole derivatives as FXR agonists and methods of use thereof” (Enanta Pharmaceuticals, Inc., priority 2016, dated 2018).
pEC50: −log10 of the molar value.

Target: T1, human FXR (NR1H4) (Homo sapiens, UniProt Q96RI1)
T1 construct: host or cells: CHO (Chinese hamster ovary) reporter cells
T1 sequence (Q96RI1 1-486): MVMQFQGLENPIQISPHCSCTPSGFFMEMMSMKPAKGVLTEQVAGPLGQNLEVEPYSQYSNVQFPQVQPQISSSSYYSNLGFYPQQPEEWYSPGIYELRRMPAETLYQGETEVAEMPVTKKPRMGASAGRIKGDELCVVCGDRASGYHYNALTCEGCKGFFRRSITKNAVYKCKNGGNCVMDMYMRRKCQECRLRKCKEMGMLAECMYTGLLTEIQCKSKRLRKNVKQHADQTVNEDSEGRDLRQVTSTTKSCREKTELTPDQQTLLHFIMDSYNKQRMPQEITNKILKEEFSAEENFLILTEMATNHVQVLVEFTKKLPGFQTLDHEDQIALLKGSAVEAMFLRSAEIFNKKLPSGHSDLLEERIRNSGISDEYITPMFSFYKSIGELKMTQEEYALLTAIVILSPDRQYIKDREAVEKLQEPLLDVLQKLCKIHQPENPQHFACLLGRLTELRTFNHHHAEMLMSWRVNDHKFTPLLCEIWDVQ
Assay: Human FXR (NR1H4) Assay, luciferase reporter in CHO cells (Indigo Bioscience kit IB00601)
Type: cell-based
Conditions: for pEC50: CHO cells expressing human NR1H4, 22 hours incubation, potency ranges; for Efficacy (%): efficacy normalized to CDCA set as 100%
Source text: Human FXR (NR1H4) Assay Determination of a ligand mediated Gal4 promoter driven transactivation to quantify ligand binding mediated activation of FXR. FXR Reporter Assay kit purchased from Indigo Bioscience (Catalogue number: IB00601) to determine the potency and efficacy of compound developed by Enanta that can induce FXR activation. The principle application of this reporter assay system is to quantify functional activity of human FXR. The assay utilizes non-human mammalian cells, CHO (Chinese hamster ovary) cells engineered to express human NR1H4 protein (referred to as FXR). Reporter cells also incorporate the cDNA encoding beetle luciferase which catalyzes the substrates and yields photon emission. Luminescence intensity of the reaction is quantified using a plate-reading luminometer, Envision. Reporter Cells include the luciferase reporter gene functionally linked to an FXR responsive promoter. Thus, quantifying changes in luciferase expression in the treated reporter cells provides a sensitive surrogate measure of the changes in FXR activity. […] The assay is according to the manufacturer's instructions. […] Retrieve Reporter Cells from −80° C. storage. Perform a rapid thaw of the frozen cells by transferring a 10 ml volume of 37° C. cell recovery medium into the tube of frozen cells. Recap the tube of Reporter Cells and immediately place it in a 37° C. water bath for 5-10 minutes. Retrieve the tube of Reporter Cell Suspension from the water bath. Sanitize the outside surface of the tube with a 70% alcohol swab, and then transfer it into the cell culture hood. Dispense 90 μl of cell suspension into each well of the 96-well Assay Plate. Transfer the plate into 37° C. incubator, allowing the cells adherent to the bottom of the well. Dilute compounds in Dilution Plate (DP), and administrate to cells at Assay Plate (AP). DMSO content of the samples was kept at 0.2%. Cells were incubated for additional 22 hours before luciferase activities were measured. Thirty minutes before intending to quantify FXR activity, remove Detection Substrate and Detection Buffer from the refrigerator and place them in a low-light area so that they may equilibrate to room temperature. Remove the plate's lid and discard all media contents by ejecting it into an appropriate waste container. Gently tap the inverted plate onto a clean absorbent paper towel to remove residual droplets. Cells will remain tightly adhered to well bottoms. Add 100 μl of luciferase detection reagent to each well of the assay plate. Allow the assay plate to rest at room temperature for at least 5 minutes following the addition of LDR. Set the instrument (Envision) to perform a single 5 second “plate shake” prior to reading the first assay well. Read time may be 0.5 second (500 mSec) per well.

| SMILES | pEC50 | Efficacy (%) |
| --- | --- | --- |
| CC(C)c1onc(-c2c(Cl)cccc2Cl)c1COc1ccc2cc(-c3cccc(C(=O)O)c3)sc2c1 [Compound (1), reference compound] | 6.00 to 7.00 | 220 |
| CC(C)c1onc(-c2c(Cl)cccc2Cl)c1COc1ccc2cc(-c3cccc(C(=O)NS(=O)(=O)C4CC4)c3)sc2c1 [Example 303] | 6.00 to 7.00 | 190 |
| CC(C)c1onc(-c2c(Cl)cccc2Cl)c1COc1ccc2cc(-c3cccc(C(=O)NS(=O)(=O)c4ccc(C(C)(C)C)cc4)c3)sc2c1 [Example 312] | 5.00 to 6.00 | 132 |
| CC(C)c1onc(-c2c(Cl)cccc2Cl)c1COc1ccc2cc(-c3cccc(C(=O)NS(=O)(=O)N(C)C)c3)sc2c1 [Example 318] | 6.00 to 7.00 | 116 |
